In patent US20250163052A1, “cGAS INHIBITORS AND USES THEREOF” (Cornell University, priority 2022, published 2025):

Columns and labels:
[1] = Metabolic stability in mouse liver microsomes; settings: for Remaining (NCF = 60 min) / Remaining (T = 60 min): mouse liver microsomes; for Remaining (NCF = 60 min): no co-factor (no NADPH); for Remaining (T = 60 min): 60 min with NADPH
[2] = tested on: NFkB-SEAP; assay: THP1-Dual cells transfected with DNA, nfkb expression (Quantiblue); format: cell-based; settings: Homo sapiens; for inhibition at 10 µM: THP-1, 10 μM; for inhibition at 30 µM: THP-1, 30 μM
Summary of the method: (§1)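 Readouts after overnight incubation: Quantiluc luminescence for Ifnb, Quantiblue for nfkb (both in supernatant) and CellTiter-Glo for viability. Before the DNA stimulus (2 ug/ml, lipofectamine transfection), THP1-Dual cells received compound at several dilutions for 4 h.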

[3] = target: m-cGAS (Mus musculus, UniProt Q8C6L5); assay: Cell-free mouse cGAS enzyme inhibition assay (ATP depletion, Kinase-Glo Max); format: biochemical; settings: 1 h; for inhibition at 10 µM: read-out: m-cGAS, conc. 10 μM; for inhibition at 1 µM: read-out: m-cGAS, conc. 1 μM
[4] = tested on: THP1 cells; assay: THP1-Dual cells, cell viability (CellTiter-Glo); format: cell-based
Summary of the method: as §1

[5] = tested on: IFNB; assay: THP1-Dual cells transfected with DNA, Ifnb expression (Quantiluc); format: cell-based; settings: Homo sapiens; for inhibition at 10 µM: THP-1, 10 μM; for inhibition at 30 µM: THP-1, 30 μM
Summary of the method: as §1

[6] = target: h-cGAS (Homo sapiens, UniProt Q8N884); assay: Cell-free human cGAS enzyme inhibition assay (ATP depletion, Kinase-Glo Max); format: biochemical; settings: 3 h; for inhibition at 1 µM: read-out: h-cGAS, conc. 1 μM; for inhibition at 10 µM: read-out: h-cGAS, conc. 10 μM
[7] = Metabolic stability in human liver microsomes; settings: for Remaining (NCF = 60 min) / Remaining (T = 60 min): human liver microsomes; for Remaining (NCF = 60 min): no co-factor (no NADPH); for Remaining (T = 60 min): 60 min with NADPH
[8] = Protein binding in mouse brain homogenates; format: in vitro ADME; settings: for recovery at 6 h / fraction unbound at 6 hr: brain homogenate; for fraction unbound at 6 hr: read-out: % BoundBrain (converted)

h-cGAS, sequence (Q8N884 whole entry): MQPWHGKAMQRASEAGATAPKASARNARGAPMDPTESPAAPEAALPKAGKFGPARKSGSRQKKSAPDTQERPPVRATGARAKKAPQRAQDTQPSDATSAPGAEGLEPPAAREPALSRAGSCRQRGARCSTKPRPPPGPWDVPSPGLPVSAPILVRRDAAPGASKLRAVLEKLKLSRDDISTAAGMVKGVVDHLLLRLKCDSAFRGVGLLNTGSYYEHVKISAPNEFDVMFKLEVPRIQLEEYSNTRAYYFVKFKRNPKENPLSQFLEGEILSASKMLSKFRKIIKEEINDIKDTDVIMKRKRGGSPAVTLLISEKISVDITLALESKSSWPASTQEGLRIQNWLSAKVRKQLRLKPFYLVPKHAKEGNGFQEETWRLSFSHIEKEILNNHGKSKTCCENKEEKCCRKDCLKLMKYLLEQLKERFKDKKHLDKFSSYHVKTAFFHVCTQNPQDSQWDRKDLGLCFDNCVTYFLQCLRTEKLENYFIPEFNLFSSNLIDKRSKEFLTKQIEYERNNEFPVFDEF
m-cGAS, sequence (Q8C6L5 whole entry): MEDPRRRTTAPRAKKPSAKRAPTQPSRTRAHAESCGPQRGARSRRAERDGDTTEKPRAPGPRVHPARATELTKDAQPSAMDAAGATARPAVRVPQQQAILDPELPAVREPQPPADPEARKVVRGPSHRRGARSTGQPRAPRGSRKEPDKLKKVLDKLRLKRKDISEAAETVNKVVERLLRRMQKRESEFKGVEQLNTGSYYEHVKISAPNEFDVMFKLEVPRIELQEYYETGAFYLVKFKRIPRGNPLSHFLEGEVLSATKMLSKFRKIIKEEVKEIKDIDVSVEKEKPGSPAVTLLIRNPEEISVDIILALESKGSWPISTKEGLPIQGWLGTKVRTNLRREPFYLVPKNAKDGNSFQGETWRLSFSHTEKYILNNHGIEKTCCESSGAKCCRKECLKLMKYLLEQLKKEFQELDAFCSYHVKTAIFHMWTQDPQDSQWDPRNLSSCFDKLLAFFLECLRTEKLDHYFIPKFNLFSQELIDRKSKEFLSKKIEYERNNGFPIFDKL

| SMILES | Remaining (NCF = 60 min) [1] [%] | Remaining (T = 60 min) [1] [%] | inhibition at 10 µM [2] [%] | inhibition at 30 µM [2] [%] | inhibition at 10 µM [3] [%] | Cell viability 10 μM [4] | Cell viability 30 μM [4] | inhibition at 10 µM [5] [%] | inhibition at 30 µM [5] [%] | inhibition at 1 µM [6] [%] | inhibition at 10 µM [6] [%] | inhibition at 1 µM [3] [%] | also measured |
| --- | --- | --- | --- | --- | --- | --- | --- | --- | --- | --- | --- | --- | --- |
| Cn1cc(-c2cc(Cl)c(Cl)c3c2c2c(n3C)CCN(C(=O)CN)C2)cn1 [Compound 11] | 97.7 | 80.1 | < 24 | 50 to 74 | 25 to 49 | ++ (+, ++, and +++ mean the compound respectively shows 25-49%; 50-74%; or 75-100% viability to cells) | − (Cell viability <24%, in THP1 cells is expressed as “−”) | 50 to 74 | 75 to 100 | 75 to 100 | 75 to 100 | – | CLint scaled ([1]; mouse, liver microsomes): < 38 mL/min/kg; half-life ([1]; mouse, liver microsomes): > 2.42 h; microsomal CLint ([1]; mouse, liver microsomes): < 9.6 µL/min/mg; Remaining (NCF = 60 min) [7]: 116.1%; Remaining (T = 60 min) [7]: 88.2%; CLint scaled ([7]; human, liver microsomes): < 8.6 mL/min/kg; half-life ([7]; human, liver microsomes): > 2.42 h; microsomal CLint ([7]; human, liver microsomes): < 9.6 µL/min/mg |
| Cn1ccc(-c2cc(Cl)c(Cl)c3oc4c(c23)CN(C(=O)CO)CC4)n1 [Compound 24] | 116.2 | 6.3 | < 24 | – | 50 to 74 | +++ (+, ++, and +++ mean the compound respectively shows 25-49%; 50-74%; or 75-100% viability to cells) | +++ (+, ++, and +++ mean the compound respectively shows 25-49%; 50-74%; or 75-100% viability to cells) | 50 to 74 | 75 to 100 | 50 to 74 | 75 to 100 | 0 to 24 | CLint scaled ([1]; mouse, liver microsomes): < 23.1 mL/min/kg; half-life ([1]; mouse, liver microsomes): > 3.08 h; microsomal CLint ([1]; mouse, liver microsomes): < 7.5 µL/min/mg |
| Cn1cc(-c2cc(Cl)c(Cl)c3sc4c(c23)CN(C(=O)CN)CC4)cn1 [Compound 54] | 94.5 | 82.0 | 75 to 100 | 75 to 100 | 50 to 74 | ++ (+, ++, and +++ mean the compound respectively shows 25-49%; 50-74%; or 75-100% viability to cells) | − (Cell viability <24%, in THP1 cells is expressed as “−”) | 75 to 100 | 75 to 100 | 50 to 74 | 75 to 100 | 0 to 24 | CLint scaled ([1]; mouse, liver microsomes): < 38 mL/min/kg; half-life ([1]; mouse, liver microsomes): > 2.42 h; microsomal CLint ([1]; mouse, liver microsomes): < 9.6 µL/min/mg; Remaining (NCF = 60 min) [7]: 129.8%; Remaining (T = 60 min) [7]: 85.4%; CLint scaled ([7]; human, liver microsomes): < 8.6 mL/min/kg; half-life ([7]; human, liver microsomes): > 2.42 h; microsomal CLint ([7]; human, liver microsomes): < 9.6 µL/min/mg |
| Cc1csc(-c2cc(Cl)c(Cl)c3sc4c(c23)CCN(C(=O)CN)C4)n1 [Compound 91] | – | – | 25 to 49 | – | 50 to 74 | ++ (+, ++, and +++ mean the compound respectively shows 25-49%; 50-74%; or 75-100% viability to cells) | − (Cell viability <24%, in THP1 cells is expressed as “−”) | 50 to 74 | – | 25 to 49 | 50 to 74 | 0 to 24 | – |
| Cn1ncc(-c2cc(Cl)c(Cl)c3sc4c(c23)CCN(C(=O)CN)C4)n1 [Compound 92] | – | – | 75 to 100 | 75 to 100 | 75 to 100 | ++ (+, ++, and +++ mean the compound respectively shows 25-49%; 50-74%; or 75-100% viability to cells) | − (Cell viability <24%, in THP1 cells is expressed as “−”) | 75 to 100 | 75 to 100 | 25 to 49 | 50 to 74 | 25 to 49 | – |
| Cn1cnc(-c2cc(Cl)c(Cl)c3sc4c(c23)CCN(C(=O)CN)C4)c1 [Compound 93] | – | – | < 24 | 50 to 74 | 50 to 74 | +++ (+, ++, and +++ mean the compound respectively shows 25-49%; 50-74%; or 75-100% viability to cells) | − (Cell viability <24%, in THP1 cells is expressed as “−”) | < 24 | 75 to 100 | 0 to 24 | 50 to 74 | 0 to 24 | – |
| NCC(=O)N1CCc2c(sc3c(Cl)c(Cl)cc(-n4cccn4)c23)C1 [Compound 94] | – | – | < 24 | – | 50 to 74 | +++ (+, ++, and +++ mean the compound respectively shows 25-49%; 50-74%; or 75-100% viability to cells) | – | < 24 | – | 25 to 49 | 50 to 74 | 0 to 24 | – |
| CNc1cnn(-c2cc(Cl)c(Cl)c3sc4c(c23)CCN(C(=O)CN)C4)c1 [Compound 95] | – | – | 25 to 49 | 25 to 49 | 50 to 74 | +++ (+, ++, and +++ mean the compound respectively shows 25-49%; 50-74%; or 75-100% viability to cells) | +++ (+, ++, and +++ mean the compound respectively shows 25-49%; 50-74%; or 75-100% viability to cells) | < 24 | 25 to 49 | – | 50 to 74 | – | – |
| Cc1ccn(-c2cc(Cl)c(Cl)c3sc4c(c23)CCN(C(=O)CN)C4)n1 [Compound 96] | – | – | < 24 | < 24 | 25 to 49 | +++ (+, ++, and +++ mean the compound respectively shows 25-49%; 50-74%; or 75-100% viability to cells) | +++ (+, ++, and +++ mean the compound respectively shows 25-49%; 50-74%; or 75-100% viability to cells) | < 24 | < 24 | 0 to 24 | 25 to 49 | – | – |
| NCC(=O)N1CCc2c(sc3c(Cl)c(Cl)cc(-n4ccnc4)c23)C1 [Compound 97] | – | – | 25 to 49 | 75 to 100 | 50 to 74 | +++ (+, ++, and +++ mean the compound respectively shows 25-49%; 50-74%; or 75-100% viability to cells) | +++ (+, ++, and +++ mean the compound respectively shows 25-49%; 50-74%; or 75-100% viability to cells) | 50 to 74 | 75 to 100 | – | 25 to 49 | – | – |
| Cn1cc(-c2cc(Cl)c(Cl)c3nc4c(n23)CN(C(=O)CO)CC4)cn1 [Compound 99] | – | – | – | – | 0 to 24 | – | – | – | – | – | 0 to 24 | – | LogK [8]: 0.64; % Remaining at 6 hr [8]: 99.35%; recovery at 6 h [8]: 90.1%; fraction unbound at 6 hr [8]: 0.19 |
| O=C(O)Cc1ccccc1Nc1c(Cl)cccc1Cl [Diclofenac, reference compound] | 100.4 | 33.1 | – | – | – | – | – | – | – | – | – | – | half-life ([1]; mouse, liver microsomes): 0.633 h; microsomal CLint ([1]; mouse, liver microsomes): 36.5 µL/min/mg; Remaining (NCF = 60 min) [7]: 114.8%; Remaining (T = 60 min) [7]: 0.0%; CLint(mic) ([7]; human, liver microsomes): 323.6 µL/min/mg; T½ ([7]; human, liver microsomes): 4.3 min |
| CCCc1nc2c(C)cc(-c3nc4ccccc4n3C)cc2n1Cc1ccc(-c2ccccc2C(=O)O)cc1 [Telmisartan, reference compound] | – | – | – | – | – | – | – | – | – | – | – | – | LogK [8]: 1.72; % Remaining at 6 hr [8]: 103.38%; recovery at 6 h [8]: 99.3%; fraction unbound at 6 hr [8]: 0.0188 |
| C[C@]12CC[C@H]3[C@@H](CCC4=CC(=O)CC[C@@]43C)[C@@H]1CC[C@@H]2O [Testosterone, reference compound] | 88.7 | 0.0 | – | – | – | – | – | – | – | – | – | – | CLint scaled ([1]; mouse, liver microsomes): 1490 mL/min/kg; CLint(mic) ([1]; mouse, liver microsomes): 375.9 µL/min/mg; T½ ([1]; mouse, liver microsomes): 3.7 min; Remaining (NCF = 60 min) [7]: 109.9%; Remaining (T = 60 min) [7]: 4.0%; CLint scaled ([7]; human, liver microsomes): 98.2 mL/min/kg |
